Measurements reported in US20100068150A1, “Selective Caspase Inhibitors” (The Board of Trustees of the Leland Stanford Junior …, priority 2006, published 2010).
Each block holds one molecule with its values, some of them ahead of it. Residues, ends and D or L forms follow the SMILES beside them. *: point of attachment. Cbz = O=C(OCc1ccccc1)*; CH2F = FC*

How the values were obtained:
[1] = target: T1, FL-C7 (full-length caspase-7) (Homo sapiens, UniProt P55210); experiment: Inhibitor specificity in hypotonic 293 extracts, full-length caspase-7; format: biochemical; conditions: inhibitor 20 μM for 5 min, then KMB01 30 min
T1 construct: the p37 band as the full-length caspase-7 with intact N-terminus (FL-C7); endogenous in cells
T1 sequence (P55210 1-303): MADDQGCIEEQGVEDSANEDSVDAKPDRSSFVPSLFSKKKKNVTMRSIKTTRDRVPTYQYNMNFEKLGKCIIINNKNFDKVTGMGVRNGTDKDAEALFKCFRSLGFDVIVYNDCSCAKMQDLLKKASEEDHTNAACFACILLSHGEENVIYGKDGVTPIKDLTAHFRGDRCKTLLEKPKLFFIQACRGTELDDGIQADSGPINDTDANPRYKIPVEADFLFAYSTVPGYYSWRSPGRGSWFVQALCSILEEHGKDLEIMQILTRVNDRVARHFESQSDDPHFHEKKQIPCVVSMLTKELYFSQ
Source text: (§1) FIGS. 6 A-E illustrate that full-length active caspase-7 has unique inhibitor specificity and is processed to mature forms by downstream executioner caspases. (A) The caspase-3 specific inhibitor causes accumulation of a catalytically active full-length form of caspase-7. Cytosolic extracts from 293 cells were activated with cytochrome c/dATP for the indicated times followed by labeling with KMB01 (left panel) and western blotting with a caspase-7 specific antibody (right panel) as in FIG. 5A. […] (B) The exact same experiment as (A) except extracts from MCF-7 cells were used in place of 293 extracts. (**) indicates forms of caspase-7 that are likely a result of the alternative transcription start site at methionine-45 (C) Quantification of the relative activity of FL-C7 in uninhibited 293 extracts (from FIG. 5A), AB06 treated 293 extracts (from (A)) and uninhibited MCF-7 extracts (from (B)) (D) Inhibitor specificity of full-length and processed forms of caspase-7. Extracts (293) were activated for 5 min with cytochrome c/dATP and then incubated with NP-capped AOMK inhibitors containing the indicated primary amino acid sequences for 5 minutes before KMB01 was added and allowed to label residual caspase active sites for 30 minutes. Samples were analyzed by SDS-PAGE followed by biotin blotting using strepavidin-HRP (left panel) or western blotting for caspase-7 (right panel). Identities of labeled caspases are indicated. (E) Specificity of AB06 after prolonged incubation times. Extracts were treated with AB06 at the indicated concentrations simultaneously with cytochrome c/dATP. At the indicated times after activation, samples were labeled with KMB01 (10 μM) for 30 minutes. Labeled caspases were resolved by SDS-PAGE analysis followed by biotin blotting using strepavidin-HRP.
To further confirm our assignment of the labeled species we treated samples at various activation times with purified recombinant Bir3 domain of XIAP. […]
(§2) An additional surprising finding from the inhibitor studies was the overall lack of inhibition of the FL-C7 species by AB06 relative to mature p20 forms of caspase-7. […] Samples were analyzed for active site labeling and protein levels of both full-length and p20 forms of caspase-7 were monitored by western blot (FIG. 6D).
Hypotonic 293 extracts (73 μg of total protein) were activated as described above and allowed to incubate for the indicated times. […] Labeling was carried out for an additional 30 minutes and samples (13.5 μg total protein) were analyzed by SDS-PAGE and biotin blotting as described above.
(§3) Hypotonic 293 extracts (73 μg of total protein) were activated at 37° C. for 5 minutes as described above. […] Samples (13.5 μg total protein) were analyzed by SDS-PAGE and biotin blotting as described above

[2] = target: T2, mature p20 forms of caspase-7 (Homo sapiens, UniProt P55210); experiment: Inhibitor specificity in hypotonic 293 extracts, mature p20 caspase-7; format: biochemical; conditions: inhibitor 20 μM for 5 min, then KMB01 30 min
T2 construct: p20 is mature large subunit of caspase-7 with N-terminal peptide removed; processing of the zymogen to the large and small subunits by activity of the initiator caspases; endogenous in cells
T2 sequence (P55210 24-198 limits assumed): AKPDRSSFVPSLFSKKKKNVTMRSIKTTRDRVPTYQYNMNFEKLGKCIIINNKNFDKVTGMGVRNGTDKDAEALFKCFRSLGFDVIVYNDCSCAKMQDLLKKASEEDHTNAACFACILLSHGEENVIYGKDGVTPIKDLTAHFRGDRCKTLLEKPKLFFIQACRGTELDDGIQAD
T2 sequence (P55210 207-303 limits assumed): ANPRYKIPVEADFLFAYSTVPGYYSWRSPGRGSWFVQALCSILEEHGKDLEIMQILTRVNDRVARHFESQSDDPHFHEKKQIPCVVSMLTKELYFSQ
Source text: as §1
as §2, with “mature p20 forms of caspase-7. This was surprising since the sequence of AB06 (NP-D3VD-AOMK) differs from the KMB01 probe sequence (Bio-EVD-AOMK) only at the P3 residue. […] We therefore wanted to use inhibitors to compare the ability of different P3 elements to bind to full-length and p20 mature forms of” for “mature p20 forms of”
as §3

[3] = test system: cathepsin B and legumain; experiment: In vivo labeling of cathepsin B and legumain in kidney and spleen of normal mice; conditions: intravenous, tissues collected 2 hrs after injection
Protocol: The present selective caspase inhibitors may be used for in vivo imaging. Cy5-fluorescent labeled versions of AB46 and AB50 were injected into normal mice and labeling of cathepsins and legumain in kidney and spleen was monitored (FIG. 14).
Normal mice were intravenously injected with the probes and tissues were collected 2 hrs after injection. Tissues were homogenized and total protein samples were analyzed by SDS-PAGE followed by scanning of the gel using a fluorescent scanner.

[4] = target: T3, Caspase-9 (Homo sapiens, UniProt P55211); experiment: Kinetic compound screening, progress curve method, caspase-9; format: biochemical; conditions: NI = no inhibition at concentrations tested
T3 sequence (P55211 1-416): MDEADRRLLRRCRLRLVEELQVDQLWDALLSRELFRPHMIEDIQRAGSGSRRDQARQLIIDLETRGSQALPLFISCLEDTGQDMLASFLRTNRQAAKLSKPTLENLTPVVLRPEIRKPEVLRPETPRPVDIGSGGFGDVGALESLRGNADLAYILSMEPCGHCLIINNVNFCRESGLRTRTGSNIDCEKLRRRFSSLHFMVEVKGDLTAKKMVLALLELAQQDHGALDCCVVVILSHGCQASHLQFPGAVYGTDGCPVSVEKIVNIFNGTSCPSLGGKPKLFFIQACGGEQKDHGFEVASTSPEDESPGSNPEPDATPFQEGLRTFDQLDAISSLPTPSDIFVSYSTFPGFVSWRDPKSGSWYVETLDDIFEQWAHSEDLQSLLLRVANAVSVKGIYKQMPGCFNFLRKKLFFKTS
Source text: (§4) Table III below presents Ki(app) values for select AB compounds. Ki(app) values (also called Kass or Kobs/I) represent the speed of inhibitor binding to a target enzyme. Units are [M^−1s^−1]. NI indicates no inhibition at concentrations tested. Parent compounds AB09, ABo8, and AB07 that include the optimal substrate specificity sequences for caspases-3, […] as determined by Thornberry and colleagues (Thornberry et al., 19970 are included between double lines.
(§5) The inhibitors AB07 (NP-LEHD-AOMK, caspase-9), AB08 (NP-LETD-AOMK, caspase-8), and AB09 (NP-DEVD-AOMK, caspase-3) were synthesized and kinetic inhibition constants (Kiapp) were obtained for all compounds for caspases 3, 7, 8 and 9 using the progress curve method for pseudo-first order reactions kinetics (Salvesen, 1989) (structures shown in Table I). […] Ki(app) values (also called Kass or Kobs/I) represent the speed of inhibitor binding to a target enzyme. Units are [M-1s-1]. NI indicates no inhibition at concentrations tested, ND indicates data not determined, SD indicates standard deviation.
(§6) Compound screening was completed using the progress curve method as described (Salvesen, 1989). All screening was carried out in caspase reaction buffer. The caspase-9 specific compounds AB38, 40, 41 and 42 were screened in caspase reaction buffer and in caspase buffer with 1M sodium citrate instead of sucrose as described (Pop, 2006) The concentrations of active caspases used is as follows: 5 nM active caspase-3, 5 nM active caspase-7, 10 nM active caspase-8, and 50 nM active caspase-9. To ensure full activation, caspases 3/7, 8 and 9 were preincubated at 37° C. for 5, 10, or 40 minutes respectively before kinetic measurements were made.

[5] = test system: death receptor-mediated liver injury; conditions: animal models; cited from earlier work
[6] = test system: extrinsic and intrinsic apoptotic pathways after spinal cord injury; conditions: animal models; cited from earlier work
[7] = test system: sepsis; conditions: mouse model; cited from earlier work
[8] = target: T4, Caspase-3 (Homo sapiens, UniProt P42574); experiment: Kinetic compound screening, progress curve method, caspase-3; format: biochemical
T4 sequence (P42574 29-175 limits assumed): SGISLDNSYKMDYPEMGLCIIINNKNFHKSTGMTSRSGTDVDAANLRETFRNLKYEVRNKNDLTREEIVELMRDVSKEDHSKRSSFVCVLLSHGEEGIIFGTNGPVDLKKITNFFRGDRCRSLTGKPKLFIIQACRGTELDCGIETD
T4 sequence (P42574 176-277 limits assumed): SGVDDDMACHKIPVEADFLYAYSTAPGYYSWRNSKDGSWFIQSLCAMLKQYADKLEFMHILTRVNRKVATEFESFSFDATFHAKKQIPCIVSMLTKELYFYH
Source text: as §4, §5, §6

[9] = test system: Myocardial infarction and the resulting death of myocytes; conditions: animal models; cited from earlier work
[10] = target: T5, Caspase-7 (Homo sapiens, UniProt P55210); experiment: Kinetic compound screening, progress curve method, caspase-7; format: biochemical
T5 sequence (P55210 1-303): T1 sequence (P55210 1-303)
Source text: as §4, §5, §6

[11] = target: Caspase-8 (Homo sapiens, UniProt Q14790); experiment: Kinetic compound screening, progress curve method, caspase-8; format: biochemical
Source text: as §4, §5, §6

[12] = test system: legumain and cathepsin B in RAW cell extracts; experiment: Direct labeling of RAW cell extracts with Cy5 probes; format: binding; conditions: varying concentrations
Source text: Cy5 fluorescently labeled versions of the three best caspase probes were compared in direct labeling experiments using recombinant caspase-3 (FIG. 13, bottom panels) and RAW cell extracts (FIG. 13, top panels). […] All probes have similar reactivity towards recombinant caspase-3.

Caspase-8, sequence (Q14790 217-479): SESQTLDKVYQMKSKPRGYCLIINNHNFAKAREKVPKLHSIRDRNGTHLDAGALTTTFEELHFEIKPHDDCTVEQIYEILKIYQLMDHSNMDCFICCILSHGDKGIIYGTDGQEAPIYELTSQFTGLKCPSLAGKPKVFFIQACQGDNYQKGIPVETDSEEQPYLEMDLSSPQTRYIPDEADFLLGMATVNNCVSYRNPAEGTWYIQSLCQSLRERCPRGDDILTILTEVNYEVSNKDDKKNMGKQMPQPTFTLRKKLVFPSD

inhibition of FL-C7 labeling [1]: almost totally inhibited
block of KMB01 labeling of mature p20 caspase-7 [2]: efficiently blocked labeling
Molecule: Cc1cccc(C)c1C(=O)OCC(=O)[C@H](CC(=O)O)NC(=O)[C@@H](NC(=O)[C@H](CCC(=O)O)NC(=O)Cc1ccc(O)c([N+](=O)[O-])c1)C(C)C [AB45, Np-E-V- D-AOMK]

Molecule: CC[C@H](NC(=O)[C@@H](CCC(=O)O)NC(=O)Cc1ccc(O)c([N+](=O)[O-])c1)C(=O)N[C@@H](CC(=O)O)C(=O)COC(=O)c1c(C)cccc1C [AB46, Np-E-8-D-AOMK]
in vivo labeling in kidney and spleen [3]: significant labeling of both legumain and cathepsin B

Molecule: COC(=O)C[C@H](NC(=O)[C@H](C)NC(=O)[C@@H](NC(=O)OCc1ccccc1)C(C)C)C(=O)CF [ZVAD-fmk, benzyloxycarbonyl-Val-Ala-Asp-fluoromethylketone, reference compound] (Cbz-Val-Ala-Asp(OMe)-CH2F)
Ki(app) Caspase-9 ([4]; Table III, Ki(app) = Kass or Kobs/I, 50 nM active caspase-9): <5,000 M^−1s^−1
Caspase-9 Ki (app) ([4]; Table IV): <5,000 M-1s-1
protection against liver injury [5]: protective and efficiently blocked death receptor-mediated liver injury
effect after spinal cord injury [6]: reduced lesion size and improved motor function
effect on sepsis [7]: efficiently reduced
Ki(app) Caspase-3 ([8]; Table III, Ki(app) = Kass or Kobs/I, 5 nM active caspase-3): 25922 M⁻¹ s⁻¹
Caspase-3 Ki(app) ([8]; Table IV): 25,922 M-1s-1
effect on myocardial infarction and death of myocytes [9]: ameliorated
Ki(app) Caspase-7 ([10]; Table III, Ki(app) = Kass or Kobs/I, 5 nM active caspase-7): <5,000 M^−1s^−1
Caspase-7 Ki (app) ([10]; Table IV): <5,000 M-1s-1
Ki(app) Caspase-8 ([11]; Table III, Ki(app) = Kass or Kobs/I, 10 nM active caspase-8): 203286 M⁻¹ s⁻¹
Caspase-8 Ki (app) ([11]; Table IV, NI = no inhibition at concentrations tested): 203,286 M-1s-1

Molecule: Cy5-hex-EPD-AOMK [AB50-Cy5]
direct labeling of off targets in RAW cell extracts [12]: only labels legumain

inhibition of FL-C7 labeling [1]: relatively insensitive to inhibition
block of KMB01 labeling of mature p20 caspase-7 [2]: incomplete inhibition
Molecule: Cc1cccc(C)c1C(=O)OCC(=O)[C@H](CC(=O)O)NC(=O)[C@@H](NC(=O)[C@H](Cc1ccncc1)NC(=O)Cc1ccccc1)C(C)C [AB37, Cbz-3-V-D-AOMK]
